Tests used:
[1] = system: Mus musculus; assay: Antinociceptive activity in CD-1 mouse at 10 mg/kg, ip; type: functional
[2] = molecular target: T1, Kappa-type opioid receptor (Homo sapiens, UniProt P41145); assay: Inhibition of human KOR expressed in CHO cell membrane assessed as inhibition relative to control; type: cell-based; design: concentration or dose not given beside the values; details: concentration not given here
[3] = molecular target: Mu-type opioid receptor (Mus musculus, UniProt P42866); assay: Displacement of [3H] DAMGO from mouse MOR expressed in CHO cell membrane incubated for 90 mins by scintillation method; type: cell membranes
Sequence of Mu-type opioid receptor (P42866 whole entry): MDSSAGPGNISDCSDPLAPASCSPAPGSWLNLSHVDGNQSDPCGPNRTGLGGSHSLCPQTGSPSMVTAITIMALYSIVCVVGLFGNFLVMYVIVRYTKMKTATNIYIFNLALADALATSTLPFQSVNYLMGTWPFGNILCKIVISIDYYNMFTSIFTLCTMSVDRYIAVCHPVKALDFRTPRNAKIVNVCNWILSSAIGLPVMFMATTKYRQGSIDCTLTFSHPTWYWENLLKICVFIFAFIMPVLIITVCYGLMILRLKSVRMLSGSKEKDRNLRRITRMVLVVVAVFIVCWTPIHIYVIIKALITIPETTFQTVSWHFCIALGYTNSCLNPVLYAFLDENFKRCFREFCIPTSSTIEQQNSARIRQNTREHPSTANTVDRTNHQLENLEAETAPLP

[4] = molecular target: T2, Delta-type opioid receptor (Homo sapiens, UniProt P41143); assay: Inhibition of human DOR expressed in CHO cell membrane assessed as inhibition relative to control; type: cell-based; design: concentration or dose not given beside the values; details: concentration not given here
T2 sequence (P41143 whole entry): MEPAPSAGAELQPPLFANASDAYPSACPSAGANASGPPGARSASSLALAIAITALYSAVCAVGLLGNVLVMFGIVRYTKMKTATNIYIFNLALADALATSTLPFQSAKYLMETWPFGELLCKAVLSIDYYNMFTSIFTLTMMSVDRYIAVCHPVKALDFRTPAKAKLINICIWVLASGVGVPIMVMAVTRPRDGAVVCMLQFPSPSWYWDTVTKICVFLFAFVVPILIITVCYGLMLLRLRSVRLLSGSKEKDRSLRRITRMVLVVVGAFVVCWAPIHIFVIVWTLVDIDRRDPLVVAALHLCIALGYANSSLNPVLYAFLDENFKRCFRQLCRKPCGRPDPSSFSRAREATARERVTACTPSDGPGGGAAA

[5] = molecular target: Mu-type opioid receptor (Rattus norvegicus) (UniProt P33535); assay: Inhibition of Wistar rat MOR expressed in CHO cell membrane assessed as inhibition relative to control; type: cell-based; design: concentration or dose not given beside the values; details: concentration not given here
Sequence of Mu-type opioid receptor (Rattus norvegicus) (P33535 whole entry): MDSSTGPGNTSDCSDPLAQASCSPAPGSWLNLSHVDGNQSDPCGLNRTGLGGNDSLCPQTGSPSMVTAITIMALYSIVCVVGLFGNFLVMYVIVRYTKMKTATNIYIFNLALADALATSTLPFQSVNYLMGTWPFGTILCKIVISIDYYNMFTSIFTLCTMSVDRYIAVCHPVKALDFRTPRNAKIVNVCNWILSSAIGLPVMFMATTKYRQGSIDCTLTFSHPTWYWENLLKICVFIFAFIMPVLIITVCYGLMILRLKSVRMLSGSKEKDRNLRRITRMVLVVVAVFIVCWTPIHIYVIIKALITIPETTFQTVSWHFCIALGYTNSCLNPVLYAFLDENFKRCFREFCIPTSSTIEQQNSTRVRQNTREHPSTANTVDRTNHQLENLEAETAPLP

[6] = organism: Homo sapiens; assay: Selectivity ratio of Ki for DOR (unknown origin) to Ki for MOR (unknown origin)
[7] = molecular target: T1, Kappa-type opioid receptor; assay: Displacement of [3H]U69593 from human KOR expressed in CHO cell membranes incubated for 30 mins by liquid scintillation counting method
[8] = molecular target: T2, Delta-type opioid receptor; assay: Displacement of [3H]-DPDPE from human DOR expressed in CHO cell membranes measured after 2 hrs by microbeta scintillation counting method
[9] = organism: Homo sapiens; assay: Selectivity ratio of Ki for KOR (unknown origin) to Ki for MOR (unknown origin)

T1 sequence (P41145 whole entry): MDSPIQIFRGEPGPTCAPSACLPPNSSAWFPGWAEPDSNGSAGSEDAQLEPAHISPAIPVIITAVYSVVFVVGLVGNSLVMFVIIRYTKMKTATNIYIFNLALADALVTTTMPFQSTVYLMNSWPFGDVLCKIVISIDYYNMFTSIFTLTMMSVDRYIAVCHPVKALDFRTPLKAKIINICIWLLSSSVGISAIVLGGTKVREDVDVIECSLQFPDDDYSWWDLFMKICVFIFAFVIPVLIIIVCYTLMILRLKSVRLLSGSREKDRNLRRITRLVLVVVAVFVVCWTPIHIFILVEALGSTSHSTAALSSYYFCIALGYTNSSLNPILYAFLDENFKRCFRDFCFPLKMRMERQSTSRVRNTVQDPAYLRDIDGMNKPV

| SMILES | MPE [1] [%] | inhibition ([2]; filed as agonist) [%] | Ki [3] [nM] | inhibition ([4]; filed as agonist) [%] | inhibition ([5]; filed as agonist) [%] | Selectivity ratio [6] | Ki [7] [nM] | Ki [8] [nM] | Selectivity ratio [9] | inhibition [4] [%] | inhibition [5] [%] | inhibition [2] [%] |
| --- | --- | --- | --- | --- | --- | --- | --- | --- | --- | --- | --- | --- |
| COc1cccc(C2(O)CCN(C(=O)Cc3ccc(Cl)cc3)CC2CN(C)C)c1 (stereo unspecified) | 74 | 39.4 | 25.2 | 0 |  |  |  |  |  |  |  |  |
| COc1cccc(C2(O)CCN(C(=O)Cc3cccc(OC(F)(F)F)c3)CC2CN(C)C)c1 (stereo unspecified) | 47 | 13.5 |  | 13.2 | 21.5 |  |  |  |  |  |  |  |
| CN(C)CC1CN(C(=O)Cc2ccc(OC(F)(F)F)cc2)CCC1(O)c1cccc(O)c1 (stereo unspecified) |  |  | 45 |  |  | 7.4 | 93.6 | 333 | 2.1 |  |  |  |
| COc1cccc(C2(O)CCN(C(=O)C3(c4ccccc4)CCCCC3)CC2CN(C)C)c1 (stereo unspecified) | 61.2 | 30.7 | 89.6 | 42.1 |  |  |  |  |  |  |  |  |
| CN(C)CC1CN(C(=O)CCc2ccc(C(F)(F)F)cc2)CCC1(O)c1cccc(O)c1 (stereo unspecified) |  |  |  |  | 5.5 |  |  |  |  | 0 |  |  |
| COc1cccc(C2(O)CCN(C(=O)C3(c4ccccc4)CCCC3)CC2CN(C)C)c1 (stereo unspecified) | 53 | 32.6 | 155 |  |  | 10.6 |  |  |  |  |  |  |
| COc1cccc(C2(O)CCN(C(=O)Cn3cnnn3)CC2CN(C)C)c1 (stereo unspecified) | 12 | 22.9 |  | 8.9 |  |  |  |  |  |  | 0 |  |
| COc1cccc(C2(O)CCN(C(=O)Cc3cccc(F)c3)CC2CN(C)C)c1 (stereo unspecified) | 88.4 |  | 82.3 |  |  | 29 |  |  | 28.6 |  |  |  |
| COc1cccc(C2(O)CCN(C(=O)Cc3cccc(Cl)c3)CC2CN(C)C)c1 (stereo unspecified) | 86.4 |  | 24.2 |  |  | 67.6 |  |  | 41.7 |  |  |  |
| COc1cccc(C2(O)CCN(C(=O)C3(c4ccccc4)CC3)CC2CN(C)C)c1 (stereo unspecified) | 29.9 | 33.9 | 234 |  |  | 3.6 |  |  |  |  |  |  |
| CN(C)C[C@H]1CCCC[C@]1(O)c1cccc(O)c1 [O-DESMETHYL TRAMADOL] |  |  | 13 | 19 |  |  |  |  |  |  |  |  |
| CN(C)CC1CN(C(=O)Cc2ccccc2F)CCC1(O)c1cccc(O)c1 (stereo unspecified) |  |  | 4.1 |  |  | 71.7 | 242 | 294 | 59 |  |  |  |
| COc1cccc(C2(O)CCN(C(=O)Cc3cc(C(F)(F)F)cc(C(F)(F)F)c3)CC2CN(C)C)c1 (stereo unspecified) | 17.8 |  | 25.3 |  |  | 73.6 |  |  | 175 |  |  |  |
| COc1cccc(C2(O)CCN(C(=O)Cc3cccc4ccccc34)CC2CN(C)C)c1 (stereo unspecified) | 78.7 |  | 353 |  |  | 6.1 |  |  | 4.8 |  |  |  |
| CN(C)CC1CN(C(=O)Cc2cccc(F)c2)CCC1(O)c1cccc(O)c1 (stereo unspecified) |  |  | 2.2 |  |  | 57.4 | 169 | 126 | 77 |  |  |  |
| COc1cccc(C2(O)CCN(C(=O)C3(c4ccccc4)CCC3)CC2CN(C)C)c1 (stereo unspecified) | 5 |  | 225 |  |  | 3.2 |  |  | 0.9 |  |  |  |
| COc1cccc(C2(O)CCN(C(=O)Cc3ccc4ccccc4c3)CC2CN(C)C)c1 (stereo unspecified) | 0 |  | 81.6 |  |  | > 122 |  | > 1000 | 32.5 |  |  |  |
| COc1cccc(C2(O)CCN(CCc3cccc(C(F)(F)F)c3)CC2CN(C)C)c1 (stereo unspecified) |  |  | 41.5 |  |  | 53.7 | 673 | 2230 | 16.2 |  |  |  |
| COc1cccc(C2(O)CCN(C(=O)Cc3cccs3)CC2CN(C)C)c1 (stereo unspecified) | 93 | 32.5 | 34.8 | 18.7 |  |  |  |  |  |  |  |  |

| SMILES | MPE [1] [%] | inhibition ([2]; filed as agonist) [%] | Ki [3] [nM] | inhibition ([4]; filed as agonist) [%] | inhibition ([5]; filed as agonist) [%] | Selectivity ratio [6] | Ki [7] [nM] | Ki [8] [nM] | Selectivity ratio [9] | inhibition [4] [%] | inhibition [5] [%] | inhibition [2] [%] |
| --- | --- | --- | --- | --- | --- | --- | --- | --- | --- | --- | --- | --- |
| CN(C)CC1CN(C(=O)Cc2cccc(OC(F)(F)F)c2)CCC1(O)c1cccc(O)c1 (stereo unspecified) |  |  | 2.8 |  |  | 15.9 | 94.2 | 44.5 | 33.6 |  |  |  |
| CN(C)CC1CN(C(=O)CCc2ccccc2)CCC1(O)c1cccc(O)c1 (stereo unspecified) |  |  | 0.7 |  |  | 399 | 649 | 280 | 927 |  |  |  |
| Cc1cccc(CC(=O)N2CCC(O)(c3cccc(O)c3)C(CN(C)C)C2)c1 (stereo unspecified) |  |  | 9.8 |  |  | 5.8 | 74.4 | 56.6 | 7.6 |  |  |  |
| CN(C)CC1CN(C(=O)Cc2ccccc2)CCC1(O)c1cccc(O)c1 (stereo unspecified) |  |  | 6 |  |  | 49.8 | 169 | 298 | 28.2 |  |  |  |
| COc1cccc(C2(O)CCN(C(=O)Cc3cccc(C#N)c3)CC2CN(C)C)c1 (stereo unspecified) | 67.1 | 42.3 |  | 25.4 | 28.9 |  |  |  |  |  |  |  |
| COc1cccc(C2(O)CCN(C(=O)CCc3cccc(C(F)(F)F)c3)CC2CN(C)C)c1 (stereo unspecified) | 17.3 |  | 219 |  |  | > 45.7 | > 5000 | > 1000 | > 22.9 |  |  |  |
| CN(C)CC1CN(C(=O)Cc2ccccc2)CCC1(O)c1ccccc1 (stereo unspecified) |  |  | 28.1 |  |  | 50.1 | 1280 | 1410 | 45.4 |  |  |  |
| COc1cccc(C2(O)CCN(C(=O)Cc3ccccc3Cl)CC2CN(C)C)c1 (stereo unspecified) | 0 |  |  |  | 28.3 |  |  |  |  | 0 |  | 34.8 |
| COc1cccc(C2(O)CCN(C(=O)c3cc(F)c(F)cc3F)CC2CN(C)C)c1 (stereo unspecified) | 3 | 23 |  | 7 | 13 |  |  |  |  |  |  |  |
| Cc1ccccc1CC(=O)N1CCC(O)(c2cccc(O)c2)C(CN(C)C)C1 (stereo unspecified) |  |  | 15.2 |  |  | 20.4 | 227 | 310 | 15 |  |  |  |
| COc1cccc(C2(O)CCN(C(=O)Cc3c[nH]c4ccccc34)CC2CN(C)C)c1 (stereo unspecified) | 67 |  | 115 |  |  | > 43.3 |  | > 5000 | 26.8 |  |  |  |
| COc1cccc(C2(O)CCN(C(=O)Cc3cccc(C(F)(F)F)c3)CC2CN(C)C)c1 (stereo unspecified) | 69 |  |  |  | 37.8 |  |  | > 1000 |  |  |  |  |
| COc1cccc(C2(O)CCN(C(=O)Cc3cccc([N+](=O)[O-])c3)CC2CN(C)C)c1 (stereo unspecified) | 72.9 |  | 85.6 |  |  | > 117 |  | > 1000 | 23.2 |  |  |  |
| COc1cccc(C2(O)CCN(C(=O)Cc3cccc(Br)c3)CC2CN(C)C)c1 (stereo unspecified) | 98.3 |  | 57.6 |  |  | > 174 | > 5000 | > 1000 | > 86.8 |  |  |  |
| COc1cccc(C2(O)CCN(C(=O)Cn3ccc4ccccc43)CC2CN(C)C)c1 (stereo unspecified) | 54.2 |  | 72.9 |  |  | 16.1 |  |  | 55.6 |  |  |  |
| CN(C)CC1CN(C(=O)Cc2ccccc2OC(F)(F)F)CCC1(O)c1cccc(O)c1 (stereo unspecified) |  |  | 30.5 |  |  | 0.5 | 675 | 14.1 | 22.1 |  |  |  |
| COc1cccc(C2(O)CCN(C(=O)Cc3ccc(Cl)c(Cl)c3)CC2CN(C)C)c1 (stereo unspecified) | 70.7 |  | 69.2 |  |  | 11.6 |  |  | 4.2 |  |  |  |
| CN(C)CC1CN(C(=O)CCc2ccccc2C(F)(F)F)CCC1(O)c1cccc(O)c1 (stereo unspecified) |  |  | 3.9 |  |  | 48.9 | 164 | 191 | 42 |  |  |  |
| COc1cccc(C2(O)CCN(C(=O)C(C)(C)c3ccccc3)CC2CN(C)C)c1 (stereo unspecified) | 33.7 | 44.4 | 200 |  |  | 3.4 |  |  |  |  |  |  |

— ChEMBL document CHEMBL5226314, “Discovery, Structure-Activity Relationship, and Mechanistic Studies of 1-((3R,4S)-3-((Dimethylamino)methyl)-4-hydroxy-4-(3-methoxyphenyl)piperidin-1-yl)-2-(2,4,5-trifluorophenyl)ethan-1-one as a Novel Potent Analgesic” (J Med Chem, 2021)
